One molecule from article PMC4884932, “Selective brain penetrable Nurr1 transactivator for treating Parkinson's disease” (Oncotarget, 2016) can be followed below.

The subject of experiment [1] is tyrosine hydroxylase (TH)-positive DA neurons. The experiment is described as follows: DA neuron survival in primary ventral midbrain (VMB) culture. Conditions: co-treatment with IRX4204. The class given is cell-based, mouse. On the procedure: (§1) Ventral midbrain (VMB) from E13.5-14.5 C57BL/6 mouse embryos were dissected, triturated and plated on poly-D-lysine coated 12 well plates or glass coverslips with the serum-free chemically-defined Neurobasal medium, supplemented with 2% B27, 0.5mM L-glutamine, 50I.U./ml penicillin and 50μg/ml streptomycin (Gibco-BRL). […] For each time point, cells were washed once with phosphate buffered saline and fixed with 4% paraformaldehyde for TH immunofluorescent staining. For cell counting, 10 frames were randomly captured from each well using a Leica fluorescent microscope and a minimum of four replicates for each dose and each time point were analyzed for each experiment.

Another experiment has as its system primary VMB neurons. The experiment can be described thus: Nurr1 downstream gene expression in VMB neurons (real time PCR). Type of experiment: cell-based, mouse. Conditions: HX531 100nM with 1nM IRX4204. As to the method: as §1
Total RNA from VMB neurons or rat substantia nigra were isolated using the RNeasy Mini Kit from Qiagen (Valencia, CA) and 1μg of total RNA was reverse transcribed using SuperScript III first-strand synthesis supermix for qRT-PCR from Invitrogen (Carlsbad, CA) according to the manufacturer's instruction. Quantitative RT-PCR was performed using Maxima SYBR Green master mix (Fermentas) in ABI Prism 7900HT in four replicates with primers amplifying the target genes. Expression level of actin was used as an internal control. Data were normalized using the 2^−ΔΔCt method. Levels of target gene mRNAs were expressed relative to those in vehicle control groups and plotted in GraphPad Prism.
For orientation: Quantitative PCR measures a nucleic acid by following its amplification.

With `CN1c2ccc([N+](=O)[O-])cc2N=C(c2ccc(C(=O)O)cc2)c2cc3c(cc21)C(C)(C)CCC3(C)C` [HX531, reference compound], the “effect on IRX4204-promoted survival of TH-positive DA neurons” value in experiment [1] is listed as “completely blocked”. Further, in the experiment with primary VMB neurons, the “effect on IRX4204-mediated increased expression of DAT” value is reported as “totally abolished” and the “effect on IRX4204-mediated increased expression of DDC” value is “totally abolished”.
